Source: patent publication US9765085B2, “SHIP1 modulators and methods related thereto” (Aquinox Pharmaceuticals (Canada) Inc., priority 2013, dated 2017)

Target: T1, His-hSHIP1 enzyme (Homo sapiens, UniProt Q92835)
T1 construct: His
T1 sequence (Q92835 1-1189): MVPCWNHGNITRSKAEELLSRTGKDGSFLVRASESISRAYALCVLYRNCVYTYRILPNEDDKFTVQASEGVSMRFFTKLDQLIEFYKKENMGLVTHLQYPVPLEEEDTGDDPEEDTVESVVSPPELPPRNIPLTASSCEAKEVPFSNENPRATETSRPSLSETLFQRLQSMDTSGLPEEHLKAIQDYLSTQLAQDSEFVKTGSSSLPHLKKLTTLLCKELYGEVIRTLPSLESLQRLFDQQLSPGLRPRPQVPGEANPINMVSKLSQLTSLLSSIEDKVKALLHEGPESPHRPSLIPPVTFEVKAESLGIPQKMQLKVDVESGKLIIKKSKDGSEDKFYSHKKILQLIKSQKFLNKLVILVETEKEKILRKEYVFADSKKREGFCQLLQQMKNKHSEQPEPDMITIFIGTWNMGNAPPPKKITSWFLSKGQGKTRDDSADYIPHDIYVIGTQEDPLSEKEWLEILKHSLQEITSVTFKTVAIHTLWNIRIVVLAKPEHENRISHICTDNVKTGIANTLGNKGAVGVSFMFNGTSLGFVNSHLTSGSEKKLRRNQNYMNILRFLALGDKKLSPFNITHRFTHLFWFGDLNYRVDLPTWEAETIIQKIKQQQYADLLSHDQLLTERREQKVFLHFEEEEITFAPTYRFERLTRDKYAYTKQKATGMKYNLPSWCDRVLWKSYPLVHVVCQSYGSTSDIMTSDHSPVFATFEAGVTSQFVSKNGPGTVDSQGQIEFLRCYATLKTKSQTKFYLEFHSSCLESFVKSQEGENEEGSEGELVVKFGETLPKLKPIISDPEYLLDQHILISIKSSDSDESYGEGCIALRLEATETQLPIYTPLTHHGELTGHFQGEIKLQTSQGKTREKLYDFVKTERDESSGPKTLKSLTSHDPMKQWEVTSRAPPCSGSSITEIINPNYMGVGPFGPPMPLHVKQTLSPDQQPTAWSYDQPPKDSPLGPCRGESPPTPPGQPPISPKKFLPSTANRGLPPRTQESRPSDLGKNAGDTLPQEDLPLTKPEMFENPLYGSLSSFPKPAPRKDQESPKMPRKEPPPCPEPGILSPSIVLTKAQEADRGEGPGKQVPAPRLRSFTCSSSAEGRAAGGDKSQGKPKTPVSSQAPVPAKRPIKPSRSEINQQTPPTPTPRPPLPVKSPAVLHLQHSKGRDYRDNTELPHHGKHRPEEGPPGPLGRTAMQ
Assay: His-hSHIP1 activity (phosphatase assay, IP4 substrate, Biomol Green)
Type: biochemical
Design: key: +++: higher than reference or reference - 15%; ++: reference - 16% to reference - 30%; +: reference - 31% or lower; −: inhibitor
Details: ratio of initial velocities (IP4 25/IP4 250 μM final) compared with a reference SHIP1 activator; 37° C.
Description: Test compounds are dissolved in 95% ethanol to form stock solutions. Before screening, the stock solutions are diluted with Phosphatase Assay Buffer (20 mM Tris-HCL, 10 mM MgCl2 pH 7.5, 0.02% Tween 20) to form working assay solutions that contain 10% ethanol. The assay is carried out on 96-well microtiter plates using a modified procedure of that reported by Ong et al., Blood 110, 1942-1949, 2007 and Yang et al., Org Lett 7, 1073-1076, 2005, both of which references are incorporated herein by reference in their entirety.
A master mix is prepared that contains 50 μL of His-hSHIP1 enzyme (0.4-1.6 ng/μL final), 25 μL of the substrate, IP4 (25 or 250 μM final), and 50 μL of test compound in 3.3% ethanol ([…]). Control blanks are also prepared by replacing His-hSHIP1 enzyme, IP4, or test compounds with Phosphate Assay Buffer. […] Each reaction component is preincubated at 37° C. for 30 min before adding to a 96-well microtiter plate. The master mix is then incubated at 37° C. At time 0, 20, 25 and 30 min, 25 μL of the master mix is removed and transferred to a new 96-well microtiter plate, to which 100 μL of Biomol Green Reagent is added to stop the reaction. After incubating the mixture for 20 min at room temperature for color development, the absorbance is read with SpectraMax Plus 96-well plate reader at a wavelength of 650 nm. Phosphate released is plotted against time to calculate the initial velocities (i.e., slope of the graph) at each IP4 concentration. The initial velocities are baseline corrected and the ratio of initial velocities (IP425/IP4250) is calculated and used to rate the test compounds.
The compound numbers in Table 2 correspond to the compound numbers in Table 1 above. Scoring of the compound is expressed as follows: […]

| Compound | Scoring (Initial Velocity Ratio) |
| --- | --- |
| CC1(C)CCC2=C1CC[C@H]([C@@]1(C)CC[C@H](O)C[C@@H]1CO)[C@H]2CNC(=O)c1cccnc1 [compound 1, N-(((4R,5S)-5-((1R,2S,4S)-4-hydroxy-2-(hydroxymethyl)-1-methylcyclohexyl)-1,1-dimethyl-2,3,4,5,6,7-hexahydro-1H-inden-4-yl)methyl)nicotinamide] | + |
| CN/C(=N\C#N)NC[C@H]1C2=C(CC[C@@H]1[C@@]1(C)CC[C@H](O)C[C@@H]1CO)C(C)(C)CC2 [compound 3, (E)-2-cyano-1-(((4R,5S)-5-((1R,2S,4S)-4-hydroxy-2-(hydroxymethyl)-1-methylcyclohexyl)-1,1-dimethyl-2,3,4,5,6,7-hexahydro-1H-inden-4-yl)methyl)-3-methylguanidine] | ++ |
| C[C@]1([C@H]2CC[C@]3(C)c4ncccc4C[C@H]3[C@@H]2CN)CC[C@H](O)C[C@@H]1CO [compound 9, (1S,3S,4R)-4-((5aS,6R,7S,9aS)-6-(aminomethyl)-9a-methyl-5a,6,7,8,9,9a-hexahydro-5H-indeno[1,2-b]pyridin-7-yl)-3-(hydroxymethyl)-4-methylcyclohexanol] | ++ |
| C[C@]1([C@H]2CC[C@]3(C)C(c4ccccc4)=CC[C@H]3[C@@H]2CN)CC[C@H](O)C[C@@H]1CO.Cl [compound 10, (1S,3S,4R)-4-((3aS,6S,7R,7aS)-7-(aminomethyl)-3a-methyl-3-phenyl-3a,4,5,6,7,7a-hexahydro-1H-inden-6-yl)-3-(hydroxymethyl)-4-methylcyclohexanol hydrochloride] | ++ |
| CC(=O)O.CC1(C2CCC3(C)C(CCC3(O)c3ccccc3)C2CN)CCC(O)CC1CO [compound 11, (1S,3aS,4R,5S,7aS)-4-(aminomethyl)-5-((1R,2S,4S)-4-hydroxy-2-(hydroxymethyl)-1-methylcyclohexyl)-7a-methyl-1-phenyloctahydro-1H-inden-1-ol acetate] | − |
| C[C@]1([C@H]2CC[C@@]3(C)[C@@H](CC[C@@]3(O)c3ccco3)[C@@H]2CN)CC[C@H](O)C[C@@H]1CO [compound 12, (1S,3aS,4R,5S,7aS)-4-(aminomethyl)-1-(furan-2-yl)-5-((1R,2S,4S)-4-hydroxy-2-(hydroxymethyl)-1-methylcyclohexyl)-7a-methyloctahydro-1H-inden-1-ol] | +++ |
| C[C@]1([C@H]2CC[C@]3(C)C(c4ccco4)=CC[C@H]3[C@@H]2CN)CC[C@H](O)C[C@@H]1CO [compound 13, (1S,3S,4R)-4-((3aS,6S,7R,7aS)-7-(aminomethyl)-3-(furan-2-yl)-3a-methyl-3a,4,5,6,7,7a-hexahydro-1H-inden-6-yl)-3-(hydroxymethyl)-4-methylcyclohexanol] | + |
| C[C@]1([C@H]2CC[C@]3(C)C(c4cccs4)=CC[C@H]3[C@@H]2CN)CC[C@H](O)C[C@@H]1CO [compound 16, (1S,3S,4R)-4-((3aS,6S,7R,7aS)-7-(aminomethyl)-3a-methyl-3-(thiophen-2-yl)-3a,4,5,6,7,7a-hexahydro-1H-inden-6-yl)-3-(hydroxymethyl)-4-methylcyclohexanol] | + |
| C[C@]1([C@H]2CC[C@@]3(C)[C@@H](CC[C@@]3(O)c3ccccn3)[C@@H]2CN)CC[C@H](O)C[C@@H]1CO [compound 17, (1S,3aS,4R,5S,7aS)-4-(aminomethyl)-5-((1R,2S,4S)-4-hydroxy-2-(hydroxymethyl)-1-methylcyclohexyl)-7a-methyl-1-(pyridin-2-yl)octahydro-1H-inden-1-ol] | − |
| C[C@]1([C@H]2CCC3=C(C[C@@H](O)[C@@]3(C)c3ccccc3)[C@@H]2CN)CC[C@H](O)C[C@@H]1CO [compound 19, (1S,2R,4R,5S)-4-(aminomethyl)-5-((1R,2S,4S)-4-hydroxy-2-(hydroxymethyl)-1-methylcyclohexyl)-1-methyl-1-phenyl-2,3,4,5,6,7-hexahydro-1H-inden-2-ol] | ++ |
| C[C@]1([C@H]2CC[C@@]3(C)[C@@H](CC[C@@]3(O)c3nccs3)[C@@H]2CN)CC[C@H](O)C[C@@H]1CO [compound 20, (1S,3aS,4R,5S,7aS)-4-(aminomethyl)-5-((1R,2S,4S)-4-hydroxy-2-(hydroxymethyl)-1-methylcyclohexyl)-7a-methyl-1-(thiazol-2-yl)octahydro-1H-inden-1-ol] | ++ |
| C=C1CC[C@H]2[C@H](CO)[C@@H]([C@@]3(C)Cc4cn[nH]c4C[C@@H]3CO)CC[C@]12C [compound 21, ((3aS,4R,5S,7aS)-5-((5R,6S)-6-(hydroxymethyl)-5-methyl-4,5,6,7-tetrahydro-1H-indazol-5-yl)-7a-methyl-1-methyleneoctahydro-1H-inden-4-yl)methanol] | + |
| C=C1CC[C@H]2[C@H](CO)[C@@H]([C@@]3(C)Cc4conc4C[C@@H]3CO)CC[C@]12C [compound 22, ((3aS,4R,5S,7aS)-5-((5R,6S)-6-(hydroxymethyl)-5-methyl-4,5,6,7-tetrahydrobenzo[c]isoxazol-5-yl)-7a-methyl-1-methyleneoctahydro-1H-inden-4-yl)methanol] | ++ |
| CC1(C)CCC2=C1CC[C@H]([C@@]1(C)Cc3cnoc3C[C@@H]1CO)[C@H]2CO [compound 23, ((5R,6S)-5-((4R,5S)-4-(hydroxymethyl)-1,1-dimethyl-2,3,4,5,6,7-hexahydro-1H-inden-5-yl)-5-methyl-4,5,6,7-tetrahydrobenzo[d]isoxazol-6-yl)methanol] | +++ |
| C=C1CC[C@H]2[C@H](CO)[C@@H]([C@@]3(C)Cc4sc(C)nc4C[C@@H]3CO)CC[C@]12C [compound 24, ((3aS,4R,5S,7aS)-5-((5S,6R)-5-(hydroxymethyl)-2,6-dimethyl-4,5,6,7-tetrahydrobenzo[d]thiazol-6-yl)-7a-methyl-1-methyleneoctahydro-1H-inden-4-yl)methanol] | ++ |
| C[C@]1([C@H]2CC[C@]3(C)C(c4ccccc4)=CC[C@H]3[C@@H]2CO)CC[C@H](O)C[C@@H]1CO [compound 25, (1S,3S,4R)-3-(hydroxymethyl)-4-((3aS,6S,7R,7aS)-7-(hydroxymethyl)-3a-methyl-3-phenyl-3a,4,5,6,7,7a-hexahydro-1H-inden-6-yl)-4-methylcyclohexanol] | ++ |
| C[C@]1([C@H]2CC[C@@]3(C)[C@@H](CC[C@@]3(O)c3ccccc3)[C@@H]2CO)CC[C@H](O)C[C@@H]1CO [compound 26, (1S,3aS,4R,5S,7aS)-5-((1R,2S,4S)-4-hydroxy-2-(hydroxymethyl)-1-methylcyclohexyl)-4-(hydroxymethyl)-7a-methyl-1-phenyloctahydro-1H-inden-1-ol] | − |
